Source: patent publication US12612424B2, “HPK1 inhibitors and uses thereof” (Regor Pharmaceuticals, Inc., priority 2019, dated 2026)

Test system: Human Pan T Cell (IL-2 release)
Assay: IL2 released by human pan T cell upon anti-CD3/anti-CD28 stimulation (ELISA)
Format: cell-based
Details: human pan T cells; for EC (2-fold response) / maximal fold induction / EC50: Homo sapiens, T-cell; for EC (2-fold response) / maximal fold induction: 48 h; for EC (2-fold response) / EC2x (nM): concentration of compound that gives 200% IL-2 response (2 folds) over DMSO control; for maximal fold induction: response of IL-2 over DMSO control, anti-CD3/anti-CD28, 48 hours, ELISA, read-out: IL-2 Max Fold Response; for EC50: IL-2 response, calculated with GraphPad Prism
Text: For example, Example 5 describes such a functional assay for determining the effect of an HPK1 inhibitor on IL-2 & IFN-γ release upon stimulation of Pan T cells. The secreted IL-2 & IFN-γ can be measured/quantified by standard ELISA assay. Briefly, pan T cells can be isolated from peripheral blood (PB) mononuclear cells (MNCs), or PBMC, using commercially available kits, such as MACS (Miltenyl Biotec) Pan T isolation kit (Cat. No. 130-096-535). Primary human pan-T cells include CD4 and CD8 T cells as well as some gamma/delta T cell subsets. The pan-T cells can be isolated using the negative immunomagnetic separation technique without the use of columns.
Isolated pan-T cells can be dispensed into 96-well plates at 100,000 cells/well, and stimulated with immobilized anti-CD3 antibody and soluable anti-CD28 antibody, or PMA/Ionomycin as the positive control (or culture media as the negative control). Different concentrations of test compounds can be added to the cells to assess the compound effect on cytokine secretion following TCR-stimulation/CD28 co-stimulation. Stimulated cells are incubated for 2 more days, before the supernatant (containing secreted cytokines by pan-T cells) is collected from each well for ELISA assay and quantitation of IL-2 and IFN-γ.
Biology Example 8 Compound Efficacy Study on IL2 & IFN-γ Released by Human Pan T Cell
This example is an assay method that can be used to determine compound effects on IL2 & IFN-γ release using pan T cells and ELISA assay format.
3. Procedures Procedures for Pan T isolation and Reagent preparation (Day 0): 1. Cell Growth Medium: • RPMI1640: ATCC, Cat #30-2001 • 10% FBS: Gibco, Cat #10099141 • 1% Pen-Strep: Gibco, Cat #15140122 • 1% Non-essential amino: Gibco, Cat #11140050 • Beta-Mercaptoethanol: Gibco, Cat #21985023 2. Pan T Isolation Buffer Preparation:
Prepare a solution containing phosphate-buffered saline (PBS), pH 7.2, 0.5% bovine serum albumin (BSA), and 2 mM EDTA by diluting MACS® BSA Stock Solution (#130-091-376) 20 times with autoMACS® Rinsing Solution. Keep buffer at 4° C. Degas buffer before use, as air bubbles could block the column.
3. Thawing of Frozen PBMC • 1) Pre-heat medium at 37° C. water bath. • 2) Rapidly thaw cells in 37° C. water bath. • 3) Add the pre-warmed medium into 15 mL tube. Transfer cells to the tube. • 4) 300×g centrifuge for 8 min. (centrifuge increase 0, decrease 0). • 5) Wash the PBMC using Rinsing buffer. • 6) Centrifuge PBMC at 300×g for 8 min, wash it twice (centrifuge increase 9, decrease 1). • 7) Resuspend the cells with Pan T cells isolation buffer and count cells number. 4. Pan T Cells Isolation: Cell Staining with Microbead Cocktail • 1) Prepare cells and determine cell number. Filter cells by 70 μm cell strainer. • 2) Resuspend cell pellet in 40 μL of buffer per 10^7 total cells. • 3) Add 10 μL of Pan T Cell Biotin-Antibody Cocktail per 10^7 total cells. • 4) Mix well and incubate for 10 minutes in the refrigerator (ice). • 5) Add 30 μL of buffer per 10^7 total cells. • 6) Add 20 μL of Pan T Cell MicroBead Cocktail per 10^7 total cells. • 7) Mix well and incubate for 15 minutes in the refrigerator (ice). • 8) Proceed to subsequent magnetic cell separation. • Note: a. Work fast, keep cells cold, and use pre-cooled solutions (2-8° C.). b. Volumes for magnetic labeling given are for up to 10′ total cells. When working with fewer cells, use the same volumes as indicated. c. When working with higher cell numbers, scale up all reagent volumes and total volumes accordingly. d. For optimal performance it is important to obtain a single-cell suspension before magnetic labeling. Subsequent Manual Cell Separation: • 1) Place LS Column in the magnetic field of a suitable MACS Separator. For details refer to the respective MACS Column data sheet. • 2) Prepare column by rinsing with 3 mL of buffer. • 3) Apply cell suspension onto the column. Collect flow-through, which represents the enriched T cells. • 4) Wash column with 5 mL of buffer. […]

SMILES	EC50 [nM]	EC (2-fold response) [µM]	maximal fold induction	EC2x (nM)
CNC(=O)C1(C)CN(c2nc(Nc3cc4c(cc3OC)CCN(C)C4)ncc2Cl)c2ccccc21 (stereo not shown) [Example 122]	–	–	< 2	–
COc1cc2c(cc1Nc1ncc(Cl)c(N3CC(C#N)c4ccccc43)n1)CN(C)CC2 (stereo not shown) [Example 99, 1-(5-Chloro-2-((6-methoxy-2-methyl-1,2,3,4-tetrahydroisoquinolin-7-yl)amino)pyrimidin-4-yl)indoline-3-carbonitrile]	–	–	< 2	–
COC(=O)CC1(C)CN(c2nc(Nc3cc4c(cc3OC)CCN(C)C4)ncc2Cl)c2ccccc21 (stereo not shown) [Example 145]	–	–	< 2	–
COc1cc2c(cc1Nc1ncc(C#N)c(N3CC(C(=O)O)c4ccccc43)n1)CN(C)CC2 (stereo not shown) [Example 110, 1-(5-Cyano-2-((6-methoxy-2-methyl-1,2,3,4-tetrahydroisoquinolin-7-yl)amino)pyrimidin-4-yl)indoline-3-carboxylic acid]	–	–	< 2	–
COc1cc2c(cc1Nc1ncc(Cl)c(N3CC(C(=O)O)C4(CCCCC4)C3)n1)CN(C)CC2 (stereo not shown) [Example 167, 2-(5-Chloro-2-((6-methoxy-2-methyl-1,2,3,4-tetrahydroisoquinolin-7-yl)amino)pyrimidin-4-yl)-2-azaspiro[4.5]decane-4-carboxylic acid]	500 to 1000	0.1 to 0.5	> 2	–
COc1cc2c(cc1Nc1ncc(Cl)c(N3CC(C)(CC(=O)O)c4ccccc43)n1)CN(C(C)C)CC2 (stereo not shown) [Example 158, 2-(1-(5-Chloro-2-((2-isopropyl-6-methoxy-1,2,3,4-tetrahydroisoquinolin-7-yl)amino)pyrimidin-4-yl)-3-methylindolin-3-yl)acetic acid]	≤ 100	≤ 0.1	> 2	–
COc1cc2c(cc1Nc1ncc(Cl)c(N3CC(C)(C#N)c4ccccc43)n1)CN(C)CC2 (stereo not shown) [Example 121, 1-(5-Chloro-2-((6-methoxy-2-methyl-1,2,3,4-tetrahydroisoquinolin-7-yl)amino)pyrimidin-4-yl)-3-methylindoline-3-carbonitrile]	–	–	< 2	–
COc1cc2c(cc1Nc1ncc(Cl)c(N3CCc4ccc(Cl)cc43)n1)CN(C)CC2 [Example 18, N-(5-chloro-4-(6-chloroindolin-1-yl)pyrimidin-2-yl)-6-methoxy-2-methyl-1,2,3,4-tetrahydroisoquinolin-7-amine]	100 to 500	–	< 2	–
COc1cc2c(cc1Nc1ncc(Cl)c(N3CCc4c(C(F)F)cccc43)n1)CN(C)CC2 [Example 92, N-(5-chloro-4-(4-(difluoromethyl)indolin-1-yl)pyrimidin-2-yl)-6-methoxy-2-methyl-1,2,3,4-tetrahydroisoquinolin-7-amine]	–	–	< 2	–
COc1cc2c(cc1Nc1ncc(Cl)c(-n3cc(CC(=O)NCC#N)c4ccccc43)n1)CN(C)CC2 [Example 137]	500 to 1000	–	< 2	–
CN1CCc2cc(Cl)c(Nc3ncc(Cl)c(N4CCc5ccccc54)n3)cc2C1 [Example 15, 6-Chloro-N-(5-chloro-4-(indolin-1-yl)pyrimidin-2-yl)-2-methyl-1,2,3,4-tetrahydroisoquinolin-7-amine]	> 1000	–	> 2	+ (“+”, for greater than 1 μM)

Second part, led by results:

EC50 [nM]	SMILES	EC (2-fold response) [µM]	maximal fold induction	EC2x (nM)
100 to 500	COc1cc2c(cc1Nc1ncc(Cl)c(N3CCc4ccccc43)n1)CN(C)CC2 [Example 4, N-(5-Chloro-4-(indolin-1-yl)pyrimidin-2-yl)-6-methoxy-2-methyl-1,2,3,4-tetrahydroisoquinolin-7-amine]	0.1 to 0.5	> 2	–
> 1000	COc1cc2c(cc1Nc1ncc(Cl)c(-n3cc(CC(N)=O)c4ccccc43)n1)CN(C)CC2 [Example 133]	–	< 2	–
100 to 500	COc1cc2c(cc1Nc1ncc(Cl)c(-n3cc(S(N)(=O)=O)c4ccccc43)n1)CN(C)CC2 [Example 83, 1-(5-Chloro-2-((6-methoxy-2-methyl-1,2,3,4-tetrahydroisoquinolin-7-yl)amino)pyrimidin-4-yl)-1H-indole-3-sulfonamide]	–	< 2	–
100 to 500	COc1cc2c(cc1Nc1ncc(Cl)c(N3CC(C(=O)O)c4ccccc43)n1)CN(C)CC2 (single isomer, unassigned) [Example 96]	0.1 to 0.5	> 2	–
≤ 100	COc1cc2c(cc1Nc1ncc3cc(C#N)n(-c4ccccc4)c3n1)CN(C)CC2 [Example 164, 2-((6-Methoxy-2-methyl-1,2,3,4-tetrahydroisoquinolin-7-yl)amino)-7-phenyl-7H-pyrrolo[2,3-d]pyrimidine-6-carbonitrile]	–	< 2	–
> 1000	COc1cc2c(cc1Nc1ncc(Cl)c(-n3nc(CC(=O)O)c4ccccc43)n1)CN(C)CC2 [Example 141]	–	> 2	++ (“++”, for higher values than “+++” but less than or equal to 1 μM)
≤ 100	CCN1CCc2cc(OC)c(Nc3ncc(Cl)c(N4CC(C)(CC(=O)O)c5ccccc54)n3)cc2C1 (stereo not shown) [Example 157, 2-(1-(5-Chloro-2-((2-ethyl-6-methoxy-1,2,3,4-tetrahydroisoquinolin-7-yl)amino)pyrimidin-4-yl)-3-methylindolin-3-yl)acetic acid]	≤ 0.1	> 2	–
100 to 500	COc1cc2c(cc1Nc1ncc(Cl)c(N3CCc4ncccc43)n1)CN(C)CC2 [Example 16, N-(5-chloro-4-(2,3-dihydro-1H-pyrrolo[3,2-b]pyridin-1-yl)pyrimidin-2-yl)-6-methoxy-2-methyl-1,2,3,4-tetrahydroisoquinolin-7-amine]	–	< 2	–
100 to 500	COc1cc2c(cc1Nc1ncc(F)c(N3CC(C(=O)O)c4ccccc43)n1)CN(C)CC2 (stereo not shown) [Example 109, 1-(5-Fluoro-2-((6-methoxy-2-methyl-1,2,3,4-tetrahydroisoquinolin-7-yl)amino)pyrimidin-4-yl)indoline-3-carboxylic acid]	–	> 2	++ (“++”, for higher values than “+++” but less than or equal to 1 μM)
500 to 1000	CNC(=O)Cc1cn(-c2nc(Nc3cc4c(cc3OC)CCN(C)C4)ncc2Cl)c2ccccc12 [Example 136]	–	< 2	–
> 1000	COc1cc2c(cc1Nc1nccc(N3CC(C(=O)O)c4ccccc43)n1)CN(C)CC2 (stereo not shown) [Example 163, 1-(2-((6-Methoxy-2-methyl-1,2,3,4-tetrahydroisoquinolin-7-yl)amino)pyrimidin-4-yl)indoline-3-carboxylic acid]	–	> 2	+ (“+”, for greater than 1 μM)
100 to 500	COc1cc2c(cc1Nc1ncc(Cl)c(N3CC(CC(=O)O)c4ccccc43)n1)CN(C)CC2 (stereo not shown) [Example 128]	0.1 to 0.5	> 2	–
100 to 500	COc1cc2c(cc1Nc1ncc(Cl)c(N3CC(C)(CO)c4ccccc43)n1)CN(C)CC2 (stereo not shown) [Example 123]	–	< 2	–
